Measured values as given in a melting point compilation (Tetko et al.; mined from patent text by program, amines drawn as free bases though some values may be those of a salt).

SMILES	melting point
CCCc1ccc2oc(Cc3ccc(O)cc3)c(C)c2c1O	117 to 120 °C
CCC(CC)N1COCc2c1cc(C)nc2Oc1c(C)cc(C)cc1C	112 to 114 °C
COc1ccc(CCNC(=O)CNc2cc(Cl)ccc2C(N)=O)cc1OC	168 °C
C=C1CCC2C3CCC4CC(O)CCC4(C)C3C(N)CC12C (stereo not given)	144 to 149 °C
O=C(CN1C(=O)c2ccccc2C1=O)NNC(=O)c1ncn2c1[C@@H]1CCCN1C(=O)c1sccc1-2	> 260 °C
O=c1[nH]c2cc(Br)c3c(c2[nH]c1=O)CN(CCCc1ccccc1)CC3	288 to 293 °C
O=C(Nc1ccc(Oc2ccnc(N3CCC(O)CC3)n2)c2ccccc12)c1cc(F)cc(N2CCCCC2)c1	182 to 184 °C
COC(=O)CCCCOc1ccc2nc3[nH]c(=O)n(C)c3cc2c1	223 to 225 °C
O=[N+]([O-])c1c(NCCO)cccc1NCCO	103 to 104 °C
Cc1ccc(F)c2c1NC(=O)C21COc2cc3c(cc21)CCO3 (stereo not given)	> 250 °C
CC1(C(=O)c2c[nH]c3ncc(-c4cccc(N5CCCC5)c4)nc23)CCCCC1	180 to 182 °C
CCCn1nc2c(N)nc3ccccc3c2c1CCCCS(C)(=O)=O	155 to 157 °C
Cc1ccc(C(=O)OC2CCC3(C)C(=CCC4C3CCC3(C)C(=NO)CCC43)C2)cc1 (stereo not given)	135 to 139 °C
COc1cc(C(=O)c2ccc([N+](=O)[O-])cc2)c(CC(=O)O)cc1Cl	185 to 188 °C
COC(=O)c1cn(Cc2ccc(OCc3nc(-c4ccccc4)oc3C)cc2)nc1C(C)C	90 to 91 °C
CCCN(C)C1CCc2c(cccc2NC(C)=O)C1 (stereo not given)	78 °C
CCn1c(-c2sc(NC(=O)c3ccncc3)nc2-c2ccco2)cccc1=O	> 300 °C
Cc1ccc2nc(N3CCN(c4ncccc4Cl)CC3)[nH]c2c1	258 to 259 °C
COCc1nnc(SCC(=O)C23CC4CC(CC(C4)C2)C3)n1C	109 to 111 °C
COc1cccc2c1CCC(O)(C(C)=O)C2 (stereo not given)	63 to 63.5 °C
Cc1nc2c(c3c1[nH]c1ccccc13)C(=O)CC(C(C)C)C2 (stereo not given)	248 to 249 °C
O=C(NC1CC1)N1CCc2[nH]cnc2C1	215 °C
O=C(NO)c1ccc2c(c1)CN(C(=O)c1ccc3[nH]ccc3c1)CC2	252 °C
O=C(c1cc(Cc2ccccc2)cc(Cn2ccnc2)c1)c1cc(Cl)c2cccnc2c1O	148 to 150 °C
COc1ccc(-n2nnc3ccc(-c4nnc(CCc5cccc(F)c5)o4)cc32)cc1	125 to 126 °C

SMILES	melting point
COc1ccc(C=CC(=O)O)cc1-c1cc2c(cc1OCCCCCC(=O)O)C(C)(C)CCC2(C)C	166 to 168 °C
O=C(O)CCCCCCCCn1cc(-c2ccccc2)c(-c2ccccc2)nc1=O	120 to 123 °C
Cc1ccc(S(=O)(=O)N2[C@@H](CCc3nc(C)no3)CC[C@H]2c2ccc(F)cc2)cc1 (racemic)	91 °C
C=CCOC(=O)CSc1cccc(NC(=O)NCC(=O)N(CC(=O)OC(C)(C)C)c2ccccc2C(=O)c2ccccc2)c1	155 to 157 °C
C#Cc1ccc(Oc2cc(C(=O)Cl)cc(C(=O)Cl)c2)cc1	68 to 69 °C
O=C(c1cc(Cl)ccc1NC(=O)C(Cl)(Cl)Cl)C1CCCCC1	93 to 93.5 °C
CS(=O)(=O)ON=C(Cl)c1ccccc1	106 to 108 °C
CCCCCCC(C(=O)OCC)c1ccc(NC(=O)C2c3ccccc3-c3ccccc32)cc1 (stereo not given)	174 to 175 °C
Cc1cc(C#N)cc(CBr)c1	80 to 81 °C
CCOC(=O)c1c(-c2ccccc2)nn2c1-c1ccccc1CC2	84 to 85 °C
CCOCc1nc2c(N)nc(C)c(C)c2n1Cc1cc(-c2ccc(F)cc2)no1	246 to 247 °C
CN1C(=O)CC[C@]2(C)c3ccc(Sc4ccc([N+](=O)[O-])cn4)cc3CC[C@@H]12	188 to 191 °C
CN(C)CCNCCc1ccc(Nc2ncc3c(n2)-c2ccccc2C(c2cccc(Br)c2)C3)cc1 (stereo not given)	75 to 77 °C
CCC(OC(=O)CS(C)(=O)=O)c1ccc(Cl)c2nc3n(c12)CCCN3c1ccc(Cl)cc1Cl (stereo not given)	187 to 189 °C
CCOC(=O)c1c(C(F)(F)F)nc(C(F)(F)F)c(C)c1OC(C)=O	49 to 51 °C
O=C(NCCO)c1cccc(-c2cccc3c2OC(Cc2cccc(C(F)(F)F)c2)C3)c1 (stereo not given)	161 to 162 °C
CC1(CCc2ccccc2)OC(=O)CC(=O)O1	63 to 65 °C
CCOC(=O)NC(=CC(=O)[C@H](Cc1ccccc1)N(Cc1ccccc1)Cc1ccccc1)Cc1ccccc1	91 to 93 °C
O=C(CCCl)c1cc2[nH]c(=O)[nH]c2cc1Cl	201 to 204 °C
N=C(NS(=O)(=O)C=Cc1ccc(Cl)c(Cl)c1)c1ccccc1	144 to 146 °C
NC(=S)N1CCc2cccnc21	173 °C
O=C(Nc1ccc2[nH]c(=O)oc2c1)C(=O)N1CCC(Oc2ccc(Cl)cc2)CC1	242 to 244 °C
CCOc1cc(Oc2ccc(S(C)(=O)=O)nc2)cc2cc(C3=NCC(CC(=O)O)S3)[nH]c12 (stereo not given)	208 to 210 °C
COc1cccc([C@H]2O[C@H](CC(=O)N[C@@H](CCSC)C(=O)O)C(=O)N(CC(C)(C)CO)c3ccc(Cl)cc32)c1OC	129 to 130 °C
COc1ccc(C2(C#Cc3ccncc3)CCC(=O)CC2)cc1OC1CCCC1	88 to 89 °C

SMILES	melting point
CCOC(=O)c1cn(CC)c2nc(OC)c(N)cc2c1=O	250 to 252 °C
N#Cn1nc(-c2ccccc2)c(=O)cc1I	135 to 137 °C
O=C(Cn1ccnc1)c1ccccc1O	195 to 200 °C
N#CCc1cnc(N)cn1	132 to 134 °C
c1ccc(-n2c(-c3ccc(OCCCN4CCCCC4)cc3)nc3ccccc32)cc1	86 °C
Cc1ncc(C=S)c(Nc2ccccc2)n1	106 °C
Cc1cccc(-c2cnc3c(N)ncnc3n2)c1	248 to 250 °C
CCOC(=O)c1ccc(-c2nc(COc3ccc(CO)cc3OC)c(C)o2)o1	105 to 106 °C
CS(=O)(=O)c1ccc(-c2cc(-n3ccc(C(F)(F)F)n3)c3ccccc3n2)cc1	194 to 196 °C
Cc1c(C(=O)Nc2ccc(N3CCC(N4CCOCC4)CC3)c(C(F)(F)F)c2)cnn1-c1ccc(Cl)cc1	193 to 194 °C
O=[N+]([O-])c1ccc(NS(=O)(=O)c2ccccc2)c(Cl)c1	155 to 157 °C
COc1ccc2c(c1)c(Cc1cc(=O)n(-c3cnc4ccccc4n3)[nH]1)c(C)n2C(=O)c1ccc(Cl)cc1	231 to 233 °C
Cc1nc(N)sc1S(=O)(=O)N(C)CCO	118 °C
CC(C)(C(N)=O)n1cc(-c2ccc(Oc3ccccc3)cc2)c2c(N)ncnc21	227 to 228 °C
Cc1c(C(=O)O)cnn1-c1nc(-c2ccc3ccccc3c2)cs1	273 to 274 °C
CCCCCCCCOc1ccc(-c2ncc(OC(=O)[C@@H](Cl)[C@@H](C)CC)cn2)c(F)c1F	66.2 °C
Cc1c(C)c2c(c(C)c1O)SC(C)O2 (stereo not given)	125 to 127 °C
CN(C)C1(c2cccs2)CC=C(c2[nH]c3ccccc3c2CCc2ccncc2)CC1 (stereo not given)	189 to 193 °C
CSC1=CC2=CN(O)NN2C(SC)=N1	275 to 278 °C
CCCOC1C=CC(=O)N1S(=O)(=O)c1ccccc1 (stereo not given)	56 to 58 °C
CN(CCC(Oc1ccc(C(=O)c2ccc3ccccc3c2)cc1)c1ccccc1)CC(=O)O (stereo not given)	77 to 89 °C
CC(C)Nc1cccnc1N1CCN(C(=O)c2ccc(C(=O)O)cn2)CC1	211 to 214 °C
O=C1NC(=O)C(c2cn(CCCO)c3ccccc23)=C1c1ccccc1[N+](=O)[O-]	193 to 195 °C
COc1cc(C(=O)NS(=O)(=O)c2ccccc2)ccc1Cc1csc2ccc(NC(=O)OC3CCCC3)cc12	253 to 254 °C
COc1nccc2c1C(C)(O)c1c([nH]c3ccncc13)C2(C)O (stereo not given)	> 250 °C

SMILES	melting point
Cc1ncc(CSC(=O)c2cccc(C(=O)SCc3cnc(C)c(O)c3CO)c2)c(CO)c1O	185 to 187 °C
CC#Cc1cc(=O)n2nc(S(=O)(=O)CCCCCC)sc2n1	122 to 125 °C
CC(C=O)Oc1ccc(Cl)cc1Cl (stereo not given)	87 to 88 °C
NC(=O)c1ccc2c(c1)S(=O)(=O)N=CN2C1CC1	278 to 281 °C
CC(=O)NCc1nc2c(N)nc(C)c(C)c2n1CC(C)C	162 to 164 °C
OC1CSC(Oc2ccc(-c3ccoc3)cc2F)C(O)C1O (stereo not given)	155 °C
COC(=O)C=C1CCOc2ccc(Cl)cc21	113 to 115 °C
Cc1ccc(C(=O)Nc2ccc(S(N)(=O)=O)cc2)c(SSc2cc(C)ccc2C(=O)Nc2ccc(S(N)(=O)=O)cc2)c1	319 to 320 °C
O=C(C1CCCCC1)N1CC2CC2(c2ccccc2)C1 (stereo not given)	81 to 82 °C
CCOCC(=O)OC1(C(=O)CO)CCC2C3CCC4=CC(=O)CCC4(C)C3C(O)CC21C (stereo not given)	161 °C
Nc1nc(N)nc(-c2ccc(-c3ccc(F)cc3)cc2)n1	> 260 °C
Cc1cc(CC(=O)NCc2cccc3c2C(=O)N(C2CCC(=O)NC2=O)C3=O)oc1C (stereo not given)	221 to 223 °C
CCOC(=O)c1c(O)c2ccsc2n(Cc2ccccc2)c1=O	146 °C
COC(=O)c1ccc(=O)n(Cc2ccc(-c3ccccc3)cc2)c1	130 to 133 °C
Cc1nc(C)c(C(C)(O)c2ccccn2)s1 (stereo not given)	104 to 105 °C
CCOC(=O)Cc1csc2nc(C(=O)OC)cn12	152 to 154 °C
O=c1[nH]c(=S)n2c3c1cnn3C(c1cccc(F)c1)=CC2	298 to 300 °C
CCCCOc1c(CO)n(CC(C)(C)C)c(=O)c2cc(F)ccc12	149 to 150 °C
NC(=O)c1nn(-c2ccccc2)c2ccccc12	149 °C
CCC(=O)N[C@@H](C)C(=O)N1CCC[C@H]1C(=O)NC1CCCC1	172 to 173 °C
COc1cc2cc(C)sc2c(Cl)c1Cl	113 to 114 °C
CC1OC2c3cc(F)ccc3N3CCC2(CC3)O1 (stereo not given)	103 to 107 °C
Cc1ccc(C=Cc2ccc(C#CC(C)N(O)C(N)=O)o2)cc1 (stereo not given)	174 °C
CCn1c(N)c(-c2nccn2COCC[Si](C)(C)C)c(=O)c2ccc(-c3ccc(CC(=O)O)cc3)nc21	220 °C
C=CCNc1nc(NCC=C)nc(NCCC2CC(C)(C)NC(C)(C)C2)n1	74 to 75 °C
